Reference: patent US8153784B2, “Imaging of enzyme activity” (The General Hospital Corporation, priority 2004, dated 2012)
Several values for one entry are separate records, joined by “and”; a condition that tells them apart may be missing. Equal entries are not always repeated.

Assays:
Assay type in all cases: biochemical
[1] = target: T1, human myeloperoxidase (MPO) (Homo sapiens, UniProt P05164); test: Pseudo-first-order rate constants of MPO-mediated conversion (relaxation times over time, 0.47 T)
T1 construct: purchased BioDesign Inc
Procedure: Kinetics of the samples were observed by measuring T1 and T2 at 0.47 T and 40° C. of the samples over at least a 24 hour period. At different time points, 1 M of sodium azide (final concentration=0.17 M) was added to stop the enzyme mediated reaction. The resultant progress curve was fitted with an empirical mathematical model and analyzed according to the Guggenheim method to obtain the pseudo-first-order rate constants (Guggenheim E A. Philos. Mag. 1926; 2:538).
An important property of a suitable substrate for an enzyme is the kinetics of enzymatic reaction. To determine the utility of the paramagnetic complexes as suitable substrates for human myeloperoxidase (MPO), we measured the pseudo-first-order rate constant of these substrates in MPO, and compared to the same substrates' reactions in Horse Radish Peroxidase (HRP) by monitoring the changes in relaxation time over time. […] The results shown were obtained using T1 measurements. T2 measurements yielded nearly identical results. The results are presented as mean±SD. N/A=not applicable.

[2] = target: T2, human neutrophil MPO (Homo sapiens, UniProt P05164); test: MPO-mediated polymerization of DOTA(Gd) substrates: T1/T2 relaxivity change; settings: for maximum ratio of relaxivity increase between MPO-converted product and substrate: longitudinal and transverse, 1300-1400 U of enzyme activity
T2 construct: purchased BioDesign Inc
Procedure: Reactions with HRP and MPO were carried out at room temperature in the presence of 0.5-1 mM substrate dissolved in 0.5 ml PBS containing H2O2 (2 mM). Reaction was initiated by adding an aliquot containing the enzyme (either HRP or MPO) and vortexing. After at least a 30 min incubation period T1 was measured using inversion-recovery pulse sequence Bruker Minispec (Buker Analytics, North Bellirica Mass.) at 0.47 T (20 MHz). Size-exclusion HPLC of reaction products was performed on TSK G3000SWXL macroporous column (Supelco) eluted with 0.1 M triethylammonium acetate, pH 7.0 at 1 ml/min.
(§1) Standard 96-well plates were prepared and imaged on a 1.5 T whole body clinical General Electric Signa MRI scanner utilizing a standard 3 inch surface coil. Inversion recovery sequences were used to measure T1 relaxation and spin echo sequences were utilized to measure T2 relaxation. T2 weighted images were obtained with TR=5000 ms and TE=100 ms with a fast spin echo sequence. T1 weighted images were obtained with spin echo sequences with the following parameters: TR=100, 200, 350, or 500, TE=11. For the Matrigel™ experiments, a relatively T2 weighted image was obtained at TR=300 ms and TE=200 ms. Single-exponential models were used to obtain T1 and T2. The relaxivities were computed by normalizing relaxation rates to the concentration of gadolinium in each sample, obtained by inductive coupled plasma (ICP) analysis performed by Galbraith Laboratories.
To determine the effect of myeloperoxidase on the substrates, we performed T1 and T2 relaxivity measurements in aqueous solutions, with and without MPO and hydrogen peroxide, at 0.47 T and 1.5 T (the results are summarized in FIGS. 3A and 3B for tyramide-DOTA(Gd) and FIGS. 4A and 4B for 5-HT-DOTA(Gd)). For reference, the two substrates were also reacted with HRP (solid symbols in FIGS. 3A and 3B and FIGS. 4A and 4B).

[3] = target: T3, MPO (Homo sapiens, UniProt P05164); test: MR imaging at 1.5 T of substrate solutions with MPO
T3 construct: purchased BioDesign Inc
Procedure: as §1
Because of the relatively higher relaxivity and relatively faster kinetics with MPO, 5-HT-DOTA was chosen for further evaluation by imaging on a clinical 1.5 T MRI scanner. FIGS. 6A-6F and FIGS. 7A-7F illustrate the relative signal changes for typical T1- and T2-weighted images in aqueous solutions with MPO. […] An approximately 40% signal difference was identified at 1300-2000 U (FIGS. 6C-6D), in keeping with the amount of relaxivity shortening found in the relaxation experiments ˜70%).

T2 sequence (P05164 279-745 limits assumed): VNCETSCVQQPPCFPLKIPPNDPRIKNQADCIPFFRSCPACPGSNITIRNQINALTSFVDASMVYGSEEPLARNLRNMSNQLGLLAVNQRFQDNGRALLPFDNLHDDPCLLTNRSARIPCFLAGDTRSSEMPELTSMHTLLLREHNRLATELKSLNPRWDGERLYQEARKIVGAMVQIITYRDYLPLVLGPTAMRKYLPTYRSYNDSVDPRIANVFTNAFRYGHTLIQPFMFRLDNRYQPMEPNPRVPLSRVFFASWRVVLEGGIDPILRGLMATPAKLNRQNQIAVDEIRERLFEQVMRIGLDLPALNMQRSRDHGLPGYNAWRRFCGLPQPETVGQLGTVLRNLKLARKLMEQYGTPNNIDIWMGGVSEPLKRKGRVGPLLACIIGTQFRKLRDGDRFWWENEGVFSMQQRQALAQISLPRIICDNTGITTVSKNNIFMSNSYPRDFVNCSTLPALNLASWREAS
T2 sequence (P05164 165-273 limits assumed): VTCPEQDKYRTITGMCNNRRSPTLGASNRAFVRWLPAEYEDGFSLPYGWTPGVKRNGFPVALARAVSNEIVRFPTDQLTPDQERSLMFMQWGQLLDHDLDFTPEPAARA
T3 sequence (P05164 279-745 limits assumed): as the sequence (P05164 279-745 limits assumed) above
T3 sequence (P05164 165-273 limits assumed): as the sequence (P05164 165-273 limits assumed) above

fraction of the final relaxation rate obtained within the first 5 minutes [1]: more than 80%
Pseudo first-order rate constant ([1]; from T1 measurements, mean±SD): 0.0063 s⁻¹
maximum ratio of relaxivity increase between MPO-converted product and substrate ([2]; 0.47 T): 1.9-2 times
maximum ratio of relaxivity increase between MPO-converted product and substrate ([2]; 1.5 T): 1.6-1.7 times
T1 shortening relative to that by HRP ([2]; 10 μL of MPO (1.6 mg/ml) vs 1 μL HRP (4 mg/ml)): 100%
T1 shortening relative to HRP-mediated T1 shortening ([2]; 250-650 U MPO): Approximately 70%
relaxivity shortening found in the relaxation experiments ([2]; 1300-2000 U): ~70%
increase in relaxivity of polymer product ([2]; equivalent amount of MPO, clinical imaging strength): 1.7 times
MPO activity giving visible imaging signal changes [3]: 250 U and 250-650 U
signal difference between MPO-converted product and substrate solution ([3]; 1300-2000 U): approximately 40%
Structure (SMILES): CC(C(=O)NCC(=O)NCCc1c[nH]c2ccc(O)cc12)N1CCN(CC(=O)[O-])CCN(CC(=O)[O-])CCN(CC(=O)[O-])CC1.[Gd+3] (stereo not shown) [5-HT-DOTA(Gd), Glycylmethyl DOTA(Gd) 5-Hydroxytryptamide]
